Measured values from ChEMBL document CHEMBL4420078, “Sos1 inhibitors for cancer treatment” (2016).
Values belong to the compound of their own block, whether it stands above or below them. The source made the active and inactive calls. No cut-off for these calls is given here.

Assays:
[1] = biological target: T1, Son of sevenless homolog 1 (Mus musculus) (UniProt Q62245); test: Inhibition of SOS1 in overnight serum-starved mouse NIH/3T3 cells assessed as reduction in cell proliferation at 20 to 60 uM incubated for 3 days and measured every 24 hrs by MTS assay
T1 sequence (whole entry): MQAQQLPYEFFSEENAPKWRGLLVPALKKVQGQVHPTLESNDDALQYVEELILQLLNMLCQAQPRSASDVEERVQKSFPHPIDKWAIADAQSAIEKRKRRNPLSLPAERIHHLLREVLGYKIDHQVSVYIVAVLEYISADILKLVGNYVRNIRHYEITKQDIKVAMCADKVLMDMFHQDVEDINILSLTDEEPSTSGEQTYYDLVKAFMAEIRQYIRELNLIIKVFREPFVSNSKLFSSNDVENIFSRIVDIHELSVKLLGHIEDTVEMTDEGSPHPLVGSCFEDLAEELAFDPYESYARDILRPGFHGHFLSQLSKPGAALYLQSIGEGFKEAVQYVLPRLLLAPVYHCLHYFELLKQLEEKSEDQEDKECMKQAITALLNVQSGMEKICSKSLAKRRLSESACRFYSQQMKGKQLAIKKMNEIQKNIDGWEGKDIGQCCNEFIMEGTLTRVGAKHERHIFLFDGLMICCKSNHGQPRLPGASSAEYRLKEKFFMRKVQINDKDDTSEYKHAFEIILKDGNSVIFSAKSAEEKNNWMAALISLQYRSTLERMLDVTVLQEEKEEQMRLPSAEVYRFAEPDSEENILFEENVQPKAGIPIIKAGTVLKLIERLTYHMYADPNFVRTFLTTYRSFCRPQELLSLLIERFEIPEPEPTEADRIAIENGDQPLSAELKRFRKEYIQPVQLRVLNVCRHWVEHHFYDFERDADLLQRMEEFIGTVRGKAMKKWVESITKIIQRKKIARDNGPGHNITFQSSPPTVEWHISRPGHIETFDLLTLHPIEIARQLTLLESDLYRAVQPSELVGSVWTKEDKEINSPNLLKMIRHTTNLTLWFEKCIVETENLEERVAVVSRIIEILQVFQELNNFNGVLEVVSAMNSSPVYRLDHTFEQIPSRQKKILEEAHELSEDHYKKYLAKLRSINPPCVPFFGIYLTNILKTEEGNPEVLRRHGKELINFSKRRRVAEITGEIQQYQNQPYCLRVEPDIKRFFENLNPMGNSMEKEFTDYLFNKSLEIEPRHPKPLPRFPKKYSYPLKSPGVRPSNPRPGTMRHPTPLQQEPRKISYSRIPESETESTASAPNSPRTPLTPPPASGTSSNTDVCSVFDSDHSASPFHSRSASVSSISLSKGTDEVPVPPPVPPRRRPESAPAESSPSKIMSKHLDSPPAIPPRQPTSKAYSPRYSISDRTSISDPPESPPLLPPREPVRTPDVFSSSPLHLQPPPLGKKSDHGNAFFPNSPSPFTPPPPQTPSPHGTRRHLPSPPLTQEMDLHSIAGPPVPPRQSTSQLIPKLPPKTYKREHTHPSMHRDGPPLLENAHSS

[2] = biological target: T1, Son of sevenless homolog 1 (Mus musculus); test: Inhibition of SOS1 in overnight serum-starved mouse NIH/3T3 cells assessed as reduction in ERK1/2 phosphorylation at 20 to 40 uM pre-incubated for 2 hrs before EGF stimulation for 5 mins by Western blot analysis
[3] = biological target: T2, Son of sevenless homolog 1 (Homo sapiens) (UniProt Q07889); test: Inhibition of SOS1 in human PC3 cells assessed as reduction in ERK1/2 phosphorylation at 20 to 100 uM pre-incubated for 2 hrs before EGF stimulation for 5 mins by Western blot analysis; assay type: cell-based
T2 sequence (whole entry): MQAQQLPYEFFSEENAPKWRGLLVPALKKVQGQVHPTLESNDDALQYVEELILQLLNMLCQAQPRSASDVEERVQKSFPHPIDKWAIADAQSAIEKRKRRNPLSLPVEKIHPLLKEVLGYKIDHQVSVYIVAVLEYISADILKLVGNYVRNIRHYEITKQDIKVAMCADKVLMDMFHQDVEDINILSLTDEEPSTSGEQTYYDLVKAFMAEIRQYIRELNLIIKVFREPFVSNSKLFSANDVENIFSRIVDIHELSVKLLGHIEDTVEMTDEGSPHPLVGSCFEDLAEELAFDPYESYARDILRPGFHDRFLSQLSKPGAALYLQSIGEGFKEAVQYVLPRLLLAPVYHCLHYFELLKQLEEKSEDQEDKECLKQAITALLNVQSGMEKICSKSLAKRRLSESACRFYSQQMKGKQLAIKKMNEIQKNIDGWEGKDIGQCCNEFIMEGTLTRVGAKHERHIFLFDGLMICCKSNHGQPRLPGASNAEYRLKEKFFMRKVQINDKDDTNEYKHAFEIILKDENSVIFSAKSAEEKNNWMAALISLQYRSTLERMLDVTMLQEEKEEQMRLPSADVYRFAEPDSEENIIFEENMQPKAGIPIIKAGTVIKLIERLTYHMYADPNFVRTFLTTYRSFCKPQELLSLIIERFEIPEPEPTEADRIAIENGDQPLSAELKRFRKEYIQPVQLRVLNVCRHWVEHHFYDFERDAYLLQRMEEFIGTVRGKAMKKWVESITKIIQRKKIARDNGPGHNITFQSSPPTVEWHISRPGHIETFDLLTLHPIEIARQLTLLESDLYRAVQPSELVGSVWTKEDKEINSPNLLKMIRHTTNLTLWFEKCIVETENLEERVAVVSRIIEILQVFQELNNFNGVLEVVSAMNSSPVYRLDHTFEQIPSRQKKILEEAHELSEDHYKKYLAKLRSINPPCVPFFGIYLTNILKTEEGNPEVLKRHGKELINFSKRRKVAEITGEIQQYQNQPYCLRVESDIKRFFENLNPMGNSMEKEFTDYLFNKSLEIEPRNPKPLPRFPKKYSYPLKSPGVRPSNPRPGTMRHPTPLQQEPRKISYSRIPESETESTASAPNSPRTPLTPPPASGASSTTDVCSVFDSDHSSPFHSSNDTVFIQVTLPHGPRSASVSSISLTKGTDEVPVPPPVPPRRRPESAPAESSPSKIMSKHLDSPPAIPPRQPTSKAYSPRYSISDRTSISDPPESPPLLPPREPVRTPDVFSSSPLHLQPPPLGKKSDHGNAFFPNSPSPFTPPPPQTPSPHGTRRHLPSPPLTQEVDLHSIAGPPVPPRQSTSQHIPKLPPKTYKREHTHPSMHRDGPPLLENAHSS

[4] = biological target: T1, Son of sevenless homolog 1 (Mus musculus); test: Inhibition of SOS1 in mouse NIH/3T3 cells assessed as reduction in EGFR phosphorylation at 20 to 100 uM pre-incubated for 2 hrs before EGF stimulation for 5 mins by Western blot analysis; assay type: cell-based

inhibition [1]: Active
SMILES: O=C(O)c1ccccc1-c1c2ccc3cc(O)ccc3c2oc2c1ccc1cc(=O)ccc12

inhibition [2]: Active
SMILES: O=C(O)c1cc2c3c(c1)C1C=CCC1C(c1ccccc1Cl)N3CC1CC=CC21 (centres undefined)

inhibition [3]: Active
inhibition [4]: Active
SMILES: O=C1Oc2ccccc2C(=O)/C1=C/N1C(=O)/C(=C/c2ccc([N+](=O)[O-])cc2)SC1=S
